pIC50: −log10 of the molar value.
Assays:
Assay type in all cases: cell-based, human
SUM-159 = assay: Cell viability assay (CCK-8), SUM-159; conditions: for inhibition at 5 µg/mL / pIC50: Homo sapiens; for inhibition at 5 µg/mL: SUM159; for pIC50: SUM159, 72 h, TNBC cell line, CCK-8, 72 h, 0.156 to 40 μM
Procedure: (§1) Four human TNBC cell lines (MDA-MB-231, MDA-MB-453, SUM-159, and BT-20), a non-TNBC breast cancer cell line (MCF-7) and a normal mammary epithelial cell line (MCF-10A) were cultured with DMEM (phenol free) supplemented with 2.5% CS-FBS and 1% L-Glu. 1.2 × 10^3 of cells were seeded into 384-well microplates and maintained for 24 h in an incubator at 37 °C in a 5% CO2, saturated humidified atmosphere. […] […] Then CCK-8 solution was added into cells and incubated for another 4 h. Absorbance was measured with a Microplate Reader at 450/600 nm. The IC50 values of the compounds on TNBC cell lines were derived using GraphPad Prism 5.0 (GraphPad Software, Inc., La Jolla, CA, USA).

MDA-MB-231 = assay: Cell viability assay (CCK-8), MDA-MB-231; conditions: for inhibition at 5 µg/mL / pIC50: Homo sapiens; for inhibition at 5 µg/mL: MDA-MB-231; for pIC50: MDA-MB-231, 72 h, TNBC cell line, CCK-8, 72 h, 0.156 to 40 μM
Procedure: as §1

MCF-7 = assay: Cell viability assay (CCK-8), MCF-7; conditions: Homo sapiens; for inhibition at 5 µg/mL: MCF7
Procedure: as §1

Row | pIC50 (MDA-MB-231) | pIC50 (MCF-7; MCF7, 72 h, non-TNBC breast cancer cell line, CCK-8, 72 h) | SMILES | inhibition at 5 µg/mL (SUM-159) [%] | inhibition at 5 µg/mL (MDA-MB-231) [%] | inhibition at 5 µg/mL (MCF-7) [%] | pIC50 (SUM-159) | growth-inhibitory effect on SUM-159 (in words) (SUM-159) | growth-inhibitory effect on MDA-MB-231 (in words) (MDA-MB-231)
1 |  |  | Cc1oc2c(cc(NS(=O)(=O)c3ccc(C(C)C)cc3)c3ccccc32)c1C(=O)O [Compound 3-32] | -0.964 | 24.7 | -7.57 |  |  | 
2 |  |  | Cc1cc(F)ccc1S(=O)(=O)Nc1cc2c(C(=O)O)c(C)oc2c2ccccc12 [Compound 3-19] | 0.38 | 19.3 | 16.3 |  |  | 
3 |  |  | COC(=O)c1c(C)oc2c1cc(NS(=O)(=O)c1ccc(Br)cc1)c1ccccc12 [Compound 3-29] | 1.32 | 45 | 14.5 |  |  | 
4 |  |  | CCOC(=O)c1c(C)oc2c1cc(NS(=O)(=O)c1ccc(C(=O)O)cc1)c1ccccc12 [Compound 3-13] | -0.635 | 19.6 | 5.14 |  |  | 
5 |  |  | COC(=O)c1c(C)oc2c1cc(NS(=O)(=O)c1ccc(C(=O)O)cc1)c1ccccc12 [Compound 3-34] | -0.042 | 11 | 2.85 |  |  | 
6 | < 4.40 |  | CCCc1oc2c(cc(NS(=O)(=O)c3ccc(OC)cc3)c3ccccc32)c1C(=O)OCC [Compound 3-28] | 46 | 61.9 | 33.4 | 4.84 |  | 
7 |  |  | CCCc1oc2c(cc(NS(=O)(=O)c3ccc(C(=O)O)cc3)c3ccccc32)c1C(=O)OCC [Compound 3-40] | 0 | 12.5 | 2.52 |  |  | 
8 |  |  | Cc1oc2c(cc(NS(=O)(=O)c3ccc(Cl)cc3)c3ccccc32)c1C(=O)O [Compound 3-1] | -0.754 | 31.4 | -12.2 |  |  | 
9 |  |  | CCOC(=O)c1c(C)oc2c1cc(NS(=O)(=O)c1cc(C)c(C)cc1C)c1ccccc12 [Compound 3-2] | -0.884 | 24.3 | 17.7 |  |  | 
10 | 5.28 |  | COC(=O)c1c(C)oc2c1cc(NS(=O)(=O)c1ccc(F)cc1C)c1ccccc12 [Compound 3-18] | 51.4 | 59.4 | 33.2 | 4.62 |  | 
11 | ~4.70 | 5.84 | Cc1sc(N)c2c(=O)oc3c4ccccc4ccc3c12 [Compound B09] |  |  |  | < 4.40 | almost no growth-inhibitory effect | almost no growth-inhibitory effect
12 |  |  | COC(=O)c1c(C)oc2c1cc(NS(=O)(=O)c1ccccc1)c1ccccc12 [Compound 3-30] | 0.862 | 50.9 | 29.3 |  |  | 
13 |  |  | CCOC(=O)c1c(C)oc2c1cc(NS(=O)(=O)c1ccc3ccccc3c1)c1ccccc12 [Compound 3-6] | 0.292 | 43.4 | 7.72 |  |  | 
14 |  |  | CCCCCOC(=O)c1c(C)oc2c1cc(NS(=O)(=O)c1ccc(OC)cc1)c1ccccc12 [Compound 3-25] | 61.9 | 39.5 | 48.3 |  |  | 
15 |  |  | COC(=O)c1c(C)oc2c1cc(NS(=O)(=O)c1ccc(C)cc1C)c1ccccc12 [Compound 3-5] | 0.757 | 41.1 | 22 |  |  | 
16 |  |  | COC(=O)c1c(C)oc2c1cc(NS(=O)(=O)c1cc(C)c(C)cc1C)c1ccccc12 [Compound 3-24] | 0.233 | 46.6 | 34.9 |  |  | 
17 |  |  | COC(=O)c1c(C)oc2c1cc(NS(=O)(=O)c1ccc(C)cc1)c1ccccc12 [Compound 3-14] | 48.2 | 62.8 | 10.2 |  |  | 
18 |  |  | CCOC(=O)c1c(C)oc2c1cc(NS(=O)(=O)c1ccc(C)cc1C)c1ccccc12 [Compound 3-16] | 0.732 | 48.2 | 43.4 |  |  | 
19 |  |  | CCOC(=O)c1c(C)oc2c1cc(NS(=O)(=O)c1ccc(C)cc1)c1ccccc12 [Compound 3-36] | -0.123 | 16.8 | -4.38 |  |  | 
